Results reported in patent US20060111305A1, “Metabolites of certain [1,4]diazepino[6,7,1-ij]quinoline derivatives and methods of preparation and use thereof” (Wyeth, priority 2004, published 2006).
Where “and” joins values, the source holds several entries; their conditions need not be identical. Equal entries are not always repeated. Where two headings read alike, the source gives them in different places.

Columns and labels:
[1] = M6 to DCDQ ratios in human urine, LC/MS (Table 35); format: in vivo, healthy human subjects
Method: (§1) Drug administration and specimen collection were performed in a randomized, double-blinded, placebo-controlled, ascending single dose study of the safety, tolerability, pharmacokinetics, and pharmacodynamics of DCDQ administered orally to healthy subjects and subjects with schizophrenia and schizoaffective disorder. The specimens were stored at approximately −70° C. until analysis for metabolite profiles and for ratios of carbamoyl glucuronide (M6) to DCDQ.
The 0-4, 4-12 and 12-24 hr urine samples from the same subjects in the single dose groups were analyzed for ratios of M6 to DCDQ. The internal standard was not used in the analysis of urine samples. The samples were diluted for 20-fold with a control urine sample and directly analyzed by LC/MS. To estimate M6-to-DCDQ ratios in human urine, control urine samples were spiked with 200 ng/mL of DCDQ and 1000, 5000, or 10000 ng/mL of DCDQ carbamoyl glucuronide, and were analyzed by LC/MS.
(§2) LC/MS System 3 was used for semi-quantitative analysis of metabolite M6 (DCDQ carbamoyl glucuronide) in plasma and urine samples. The HPLC equipment for this LC/MS System consisted of a Thermo Surveyor HPLC (Thermo Electron Corp., San Jose, Calif.), including a Surveyor MS pump and autosampler. Separations were accomplished on a 5 micron Phenomenex Luna C18(2) column, 150×2 mm (Phenomenex, Torrance, Calif.). The autosampler and column temperatures were set at 5° C. and 40° C., respectively. The HPLC mobile phase consisted of 10 mM ammonium acetate (A) and methanol (B), and was delivered at 0.2 mL/min. The linear mobile phase gradient (HPLC Gradient 2) is shown below. During LC/MS sample analysis, up to 3 min of the initial flow was diverted away from the mass spectrometer prior to evaluation of metabolites.
(§3) The mass spectrometer used for semi-quantitative anslysis with LC/MS System 3 was a Finnigan TSQ Quantum triple quadrupole mass spectrometer (Thermo Electron Corp.). The mass spectrometer was equipped with an electrospray interface and operated in the positive ionization mode. Settings for this mass spectrometer are listed below.
(§4) LC/MS/MS analysis in the selected reaction monitoring (SRM) mode (LC/SRM) was conducted for DCDQ and M6 using the following settings.

[2] = Concentrations of DCDQ and DCDQ carbamoyl glucuronide (M6) in human plasma, LC/SRM (Table 34); format: in vivo, healthy human subjects; settings: plasma, plasma; for concentration at 6 h / concentration at 12 h / concentration at 24 h: human, oral, read-out: DCDQ concentration in plasma
Method: as §1
Plasma samples from fasted subjects 25, 28 and 30 in the 50 mg single dose group, fasted subjects 50, 51, 54 in the 200 mg single dose group, fasted subjects 74, 76, 79 in the 300 mg single dose group, fed subjects 83, 84, 86 in the 300 mg single dose group and fasted subjects 92, 94, 96 in the 500 mg single dose group were analyzed for DCDQ carbamoyl glucuronide (M6) concentrations. The internal standard d8-DCDQ (25 μL of 200 ng/mL methanol solution) was added to 100 μL of the plasma samples, followed by the addition of 300 μL of acetonitrile. The samples were mixed and centrifuged at 14000 rpm in an Eppendorf 5415C centrifuge (Brinkman Instruments Inc., Westbury, N.Y.) for 10 minutes. The supernatant of each sample was transferred to a clean tube and evaporated to dryness under a stream of nitrogen in a TurboVap LV evaporator (Caliper Life Sciences, Hopkinton, Mass.). The residue was reconstituted with 50 μL of methanol followed by the addition of 150 μL of water. The sample was mixed and centrifuged as described above. The supernatant was analyzed by LC/MS/MS analysis. Samples for standard curves were prepared with control plasma spiked with synthetic M6. The concentrations of M6 used for the standard curve ranged from 0 to 2500 ng/mL plasma.
as §2, §3, §4
The computer program Microsoft Excel® 97 was used to calculate means and standard deviations and to perform the student t-test. Xcalibur (version 1.3) and MassLynx software (version 4.0) were used for collection and analysis of LC/MS data. Peak area ratios of M6 to the internal standard were used for quantitation of M6 in plasma samples.

c1cc2c3c(c1)[C@H]1CCC[C@H]1CN3CCNC2 [DCDQ, (9aR,12aS)-4,5,6,7,9,9a,10,11,12,12a-decahydro-cyclopenta[c][1,4]diazepine[6,7,1-ij]quinoline, reference compound]
DCDQ concentration in urine ([1]; 50 mg (fasted), 0-4 hr, Mean ± S.D.): 47.5 ± 58.5 ng/mL | DCDQ concentration in urine ([1]; 50 mg (fasted), 0-4 hr, individual subjects): 115 ng/mL and 13.7 ng/mL (2×) | DCDQ concentration in urine ([1]; 50 mg (fasted), 4-12 hr, Mean ± S.D.): 58.4 ± 58.9 ng/mL | DCDQ concentration in urine ([1]; 50 mg (fasted), 4-12 hr, individual subjects): 31 ng/mL and 18.2 ng/mL and 126 ng/mL | DCDQ concentration in urine ([1]; 50 mg (fasted), 12-24 hr, Mean): 32.7 ± 37.4 ng/mL | DCDQ concentration in urine ([1]; 50 mg (fasted), 12-24 hr, individual subjects): 17.7 ng/mL and 5.21 ng/mL and 75.3 ng/mL | DCDQ concentration in urine ([1]; 200 mg (fasted), 0-4 hr, Mean ± S.D.): 199 ± 124 ng/mL | DCDQ concentration in urine ([1]; 200 mg (fasted), 0-4 hr, individual subjects): 251 ng/mL and 288 ng/mL and 57 ng/mL | DCDQ concentration in urine ([1]; 200 mg (fasted), 4-12 hr, Mean ± S.D.): 118 ± 51.9 ng/mL | DCDQ concentration in urine ([1]; 200 mg (fasted), 4-12 hr, individual subjects): 79.5 ng/mL and 177 ng/mL and 97.3 ng/mL | DCDQ concentration in urine ([1]; 200 mg (fasted), 12-24 hr, Mean ± S.D.): 114 ± 81.5 ng/mL | DCDQ concentration in urine ([1]; 200 mg (fasted), 12-24 hr, individual subjects): 23.1 ng/mL and 181 ng/mL and 137 ng/mL | DCDQ concentration in urine ([1]; 300 mg (fasted), 0-4 hr, Mean ± S.D.): 81.4 ± 82.9 ng/mL | DCDQ concentration in urine ([1]; 300 mg (fasted), 0-4 hr, individual subjects): 9.43 ng/mL and 62.8 ng/mL and 172 ng/mL | DCDQ concentration in urine ([1]; 300 mg (fasted), 4-12 hr, Mean ± S.D.): 62.5 ± 36.8 ng/mL | DCDQ concentration in urine ([1]; 300 mg (fasted), 4-12 hr, individual subjects): 21.7 ng/mL and 93.4 ng/mL and 72.3 ng/mL | DCDQ concentration in urine ([1]; 300 mg (fasted), 12-24 hr, Mean ± S.D.): 128 ± 148 ng/mL | DCDQ concentration in urine ([1]; 300 mg (fasted), 12-24 hr, individual subjects): 22.9 ng/mL and 298 ng/mL and 64.1 ng/mL | DCDQ concentration in urine ([1]; 300 mg (fed), 0-4 hr, Mean ± S.D.): 19.8 ± 31.3 ng/mL | DCDQ concentration in urine ([1]; 300 mg (fed), 0-4 hr, individual subjects): 55.9 ng/mL and 1.56 ng/mL and 1.82 ng/mL | DCDQ concentration in urine ([1]; 300 mg (fed), 4-12 hr, Mean ± S.D.): 155 ± 115 ng/mL | DCDQ concentration in urine ([1]; 300 mg (fed), 4-12 hr, individual subjects): 259 ng/mL and 174 ng/mL and 30.6 ng/mL | DCDQ concentration in urine ([1]; 300 mg (fed), 12-24 hr, Mean ± S.D.): 258 ± 125 ng/mL | DCDQ concentration in urine ([1]; 300 mg (fed), 12-24 hr, individual subjects): 351 ng/mL and 116 ng/mL and 308 ng/mL | DCDQ concentration in urine ([1]; 500 mg (fasted), 0-4 hr, Mean ± S.D.): 914 ± 619 ng/mL | DCDQ concentration in urine ([1]; 500 mg (fasted), 0-4 hr, individual subjects): 1569 ng/mL and 835 ng/mL and 339 ng/mL | DCDQ concentration in urine ([1]; 500 mg (fasted), 4-12 hr, Mean ± S.D.): 1369 ± 658 ng/mL | DCDQ concentration in urine ([1]; 500 mg (fasted), 4-12 hr, individual subjects): 1683 ng/mL and 612 ng/mL and 1811 ng/mL | DCDQ concentration in urine ([1]; 500 mg (fasted), 12-24 hr, Mean ± S.D.): 279 ± 123 ng/mL | DCDQ concentration in urine ([1]; 500 mg (fasted), 12-24 hr, individual subjects): 160 ng/mL and 405 ng/mL and 273 ng/mL | concentration at 6 h ([2]; 50 mg, 50 mg (fasted), 6 hr, Mean ± S.D.): 2.47 ± 2.21 ng/mL | concentration at 12 h ([2]; 50 mg, 50 mg (fasted), 12 hr, Mean ± S.D.): 1.2 ± 1.14 ng/mL | concentration at 24 h ([2]; 50 mg, 50 mg (fasted), 24 hr, Mean (standard deviation not calculated)): 0.4 ng/mL | concentration at 6 h ([2]; 200 mg, 200 mg (fasted), 6 hr, Mean ± S.D.): 10.9 ± 7.71 ng/mL | concentration at 12 h ([2]; 200 mg, 200 mg (fasted), 12 hr, Mean ± S.D.): 5.6 ± 4.06 ng/mL | concentration at 24 h ([2]; 200 mg, 200 mg (fasted), 24 hr, Mean ± S.D.): 1.5 ± 1.15 ng/mL | concentration at 6 h ([2]; 300 mg, 300 mg (fasted), 6 hr, Mean ± S.D.): 7.45 ± 7.48 ng/mL | concentration at 12 h ([2]; 300 mg, 300 mg (fasted), 12 hr, Mean ± S.D.): 4.23 ± 3.26 ng/mL | concentration at 24 h ([2]; 300 mg, 300 mg (fasted), 24 hr, Mean ± S.D.): 1.46 ± 0.43 ng/mL | concentration at 24 h ([2]; 300 mg, 300 mg (fasted), 24 hr, individual subjects): 0.972 ng/mL | concentration at 6 h ([2]; 300 mg, 300 mg (fed), 6 hr, Mean ± S.D.): 12 ± 9.39 ng/mL | concentration at 12 h ([2]; 300 mg, 300 mg (fed), 12 hr, Mean ± S.D.): 8.31 ± 2.47 ng/mL | concentration at 12 h ([2]; 300 mg, 300 mg (fed), 12 hr, individual subjects): 10.9 ng/mL | concentration at 24 h ([2]; 300 mg, 300 mg (fed), 24 hr, Mean ± S.D.): 2.15 ± 0.86 ng/mL | concentration at 6 h ([2]; 500 mg, 500 mg (fasted), 6 hr, Mean ± S.D.): 32.1 ± 12.2 ng/mL | concentration at 12 h ([2]; 500 mg, 500 mg (fasted), 12 hr, Mean ± S.D.): 19.4 ± 6.56 ng/mL | concentration at 24 h ([2]; 500 mg, 500 mg (fasted), 24 hr, Mean ± S.D.): 5.45 ± 1.47 ng/mL | concentration at 24 h ([2]; 500 mg, 500 mg (fasted), 24 hr, individual subjects): 5.53 ng/mL | DCDQ concentration in plasma ([2]; 50 mg (fasted), 6 hr, individual subjects): 0.9 ng/mL and 5.0 ng/mL | DCDQ concentration in plasma ([2]; 50 mg (fasted), 12 hr, individual subjects): 0.7 ng/mL and 0.4 ng/mL and 2.5 ng/mL | DCDQ concentration in plasma ([2]; 50 mg (fasted), 24 hr, individual subjects): 0.2 ng/mL and 0.6 ng/mL | DCDQ concentration in plasma ([2]; 200 mg (fasted), 6 hr, individual subjects): 2.7 ng/mL and 18.0 ng/mL and 12.0 ng/mL | DCDQ concentration in plasma ([2]; 200 mg (fasted), 12 hr, individual subjects): 1.2 ng/mL and 9.2 ng/mL and 6.4 ng/mL | DCDQ concentration in plasma ([2]; 200 mg (fasted), 24 hr, individual subjects): 0.3 ng/mL and 2.6 ng/mL and 1.6 ng/mL | DCDQ concentration in plasma ([2]; 300 mg (fasted), 6 hr, individual subjects): 2.09 ng/mL and 4.27 ng/mL and 16.0 ng/mL | DCDQ concentration in plasma ([2]; 300 mg (fasted), 12 hr, individual subjects): 1.50 ng/mL and 3.34 ng/mL and 7.84 ng/mL | DCDQ concentration in plasma ([2]; 300 mg (fasted), 24 hr, individual subjects): 1.72 ng/mL and 1.70 ng/mL | DCDQ concentration in plasma ([2]; 300 mg (fed), 6 hr, individual subjects): 19.0 ng/mL and 15.6 ng/mL and 1.30 ng/mL | DCDQ concentration in plasma ([2]; 300 mg (fed), 12 hr, individual subjects): 8.06 ng/mL and 5.97 ng/mL | DCDQ concentration in plasma ([2]; 300 mg (fed), 24 hr, individual subjects): 2.60 ng/mL and 1.15 ng/mL and 2.69 ng/mL | DCDQ concentration in plasma ([2]; 500 mg (fasted), 6 hr, individual subjects): 44.5 ng/mL and 31.7 ng/mL and 20.2 ng/mL | DCDQ concentration in plasma ([2]; 500 mg (fasted), 12 hr, individual subjects): 24.5 ng/mL and 21.7 ng/mL and 12.0 ng/mL | DCDQ concentration in plasma ([2]; 500 mg (fasted), 24 hr, individual subjects): 6.88 ng/mL and 3.95 ng/mL
